Results reported in patent publication US20100278853A1, “C[…] V3 LOOP PEPTIDES AS NOVEL IMMUNOGENS AND RECEPTOR ANTAGONISTS” (YEDA RESEARCH AND DEVELOPMENT CO., LTD., priority 2003, published 2010).

Legend:
447Fv = assay: Fluorescence quenching of 447Fv upon titration with the peptide; design: species or system human; conditions: read-out: dissociation constant / binding affinity for 447Fv
Description: The R5A-M1 peptide binds 447Fv with a dissociation constant of 10 nM as determined by fluorescence quenching of 447F upon titration with the peptide, so is within one order of magnitude of the binding affinity of the V3 peptide (˜1 nM).

447 = assay: Binding affinity of V3 peptides to mAb 447 (method not described); design: species or system human; conditions: relative to affinity of 447 for V3MN peptide
[1] = system: R5 and X4 tropic virus strains; conditions: against both R5 and X4 tropic virus strains; cited from earlier work

With CRKSIHC—GPGRCFYTTGC [R5A-M1] as the substance, how does the Kd (447Fv) read?
The Kd was 10 nM.

With “TRKSIRIQRGPGRAFVTIGK [V3IIIB, 310-329 gp120IIIB V3 loop peptide expressed in E. coli]” as the substance, how does the “association constant with 447 compared with the corresponding V3MN peptide” value 447 read?
The value was “one order of magnitude lower”.

Which anti-HIV activity [1] does the source give for “α-defensin: low molecular weight granulocyte protein, pdb code 1dfn” here?
The anti-HIV activity was “anti-HIV activity”.
